One test has as its system complement. Put plainly: protection against spontaneous complement activation in complement-containing samples during in vitro storage (summary of fragment EIAs). The class given is biochemical, human. How it is done:
A method for screening compounds to determine the complement preventing effectiveness thereof is described in detail in the course of the following experimental description and discussion. The method essentially comprises treating complement-containing samples with various doses of the test compounds, storing the thus-treated sample at conventional storage temperature for a minimum of about 48 hours and determining the extent of complement activation which occurs during the storage period by performing assays on the sample for various complement activation products. The results are compared with determination of the level of the same activation products at the beginning of the storage period, i.e., a non-incubated control sample. A non-treated control, comprising an identical sample diluted with phosphate buffered saline (PBS) in a volume ratio identical to that of the sample and polyhydroxyl solution is similarly assayed.
(§1) The concentrations, expressed as μg analyte/mL, of a number of different activation products of spontaneous complement activation were measured in the course of these experiments. In an effort to normalize the data obtained from the various determinations so that the results from different assays could be directly compared to one another, a percent protection value was calculated for each analyte measured. The precent protection values were calculated by dividing the μg analyte/mL in the non-incubated, time-zero control sample by the μg analyte/mL in the experimental sample, multiplied by 100%. A percent protection value of 70 to 130% for any given analyte measured in an experimental sample was considered to indicate that the invention formulation tested was fully effective at providing protection against the occurrence of spontaneous complement activation. Ideally, the effective composition formulation would provide full protection against the occurrence of spontaneous complement activation in a complement-containing sample for all of the analytes measured. In fact, this was the case with several polyhydroxyl compounds when they were present in sufficiently high concentrations in a preferred embodiment of the invention.
A percent protection value range of 70 to 130% was used as a criterion to define that a given invention embodiment was able to provide full protection against spontaneous complement activation for the following reasons: The coefficient of variation for the EIA kits employed in these studies ranged from 10-30% when analyte levels were measured in the very low range of values found in freshly-drawn normal human plasma samples. Therefore, in order to ensure that a given result fell within the variability range of the assays employed, a percent protection value between 70 and 130% was considered to represent a fully protective effect.

The target of a further test is T1, C3 (Homo sapiens, UniProt P01024).
T1 construct: 250 μL of freshly drawn EDTA-normal human plasma (EDTA-NHP); from tissue; host or cells: normal human blood plasma (EDTA plasma; in A12 also citrate and heparin plasma)
Put plainly: polyhydroxyl compounds in Buffer B mixed with EDTA-NHP: iC3b and C3d,g/iC3b fragment EIA. It is filed as biochemical. The following applies: final concentration 2M, 22° C. for 48 hr. How it is done: (§2) An extensive series of experiments were conducted to examine the ability of a large variety of polyhydroxyl compounds to prevent the spontaneous activation of C in EDTA-NHP during in vitro storage at 22° C for 48 hr. EDTA-NHP was mixed with an equal volume of Buffer B containing the polyhydroxyl compound to be tested. In these experiments Buffer B consisted of 40 mM EDTA and 30 IU sodium heparin/mL dissolved in deionized water, pH 7.2. The final concentration of polyhydroxyl compound dissolved in Buffer B varied for each compound due to differences in solubility. For each set of experiments, EDTA-NHP was also diluted and mixed with an equal volume of PBS (untreated control). The EDTA-NHP samples mixed with each polyhydroxyl compound dissolved in Buffer B and the corresponding untreated controls were incubated at 22° C. for 48 hr, stored at -70° C. and subsequently assayed for C4d, iC3b, C3d,g/iC3b and Bb complement fragment levels as well as for circulating immune complex levels using the Raji Cell Replacement EIA. […] This conclusion was based upon the iC3b percent protection values determined for each of the polyhydroxyl compounds (treated samples) as listed in FIG. 14.
as §1
A plasma dilution of 1:50 and a serum dilution of 1:100 were used in the iC3b fragment EIA tests. The immunochemical reaction specificity of MoAb 013III-1.1.6.1 has been published previously in abstract form, W. P. Kolb, et al., Fed. Proc. 44:990 (1985).
A plasma dilution of 1:250 and a serum dilution of 1:500 were used in the C3d,g/iC3b EIA tests. […] 135:2015-2019 (1985); Y. Kanayama, et al., J. Immunol. Meth. 88:33-36 (1986). The immunochemical reaction specificity of the Cytotech MoAb 013III-31.4.3.2.2has been published previously in abstract form, W. P. Kolb, et al., FASEB Journal 2:A1834 (1988).

For a further test, the system named is C4. Put plainly: polyhydroxyl compounds in Buffer B mixed with EDTA-NHP: C4d fragment EIA. It is filed as biochemical, human. Particulars: final concentration 2M, 22° C. for 48 hr. How it is done:
as §2, §1

T1 sequence (P01024 672-1663 limits assumed): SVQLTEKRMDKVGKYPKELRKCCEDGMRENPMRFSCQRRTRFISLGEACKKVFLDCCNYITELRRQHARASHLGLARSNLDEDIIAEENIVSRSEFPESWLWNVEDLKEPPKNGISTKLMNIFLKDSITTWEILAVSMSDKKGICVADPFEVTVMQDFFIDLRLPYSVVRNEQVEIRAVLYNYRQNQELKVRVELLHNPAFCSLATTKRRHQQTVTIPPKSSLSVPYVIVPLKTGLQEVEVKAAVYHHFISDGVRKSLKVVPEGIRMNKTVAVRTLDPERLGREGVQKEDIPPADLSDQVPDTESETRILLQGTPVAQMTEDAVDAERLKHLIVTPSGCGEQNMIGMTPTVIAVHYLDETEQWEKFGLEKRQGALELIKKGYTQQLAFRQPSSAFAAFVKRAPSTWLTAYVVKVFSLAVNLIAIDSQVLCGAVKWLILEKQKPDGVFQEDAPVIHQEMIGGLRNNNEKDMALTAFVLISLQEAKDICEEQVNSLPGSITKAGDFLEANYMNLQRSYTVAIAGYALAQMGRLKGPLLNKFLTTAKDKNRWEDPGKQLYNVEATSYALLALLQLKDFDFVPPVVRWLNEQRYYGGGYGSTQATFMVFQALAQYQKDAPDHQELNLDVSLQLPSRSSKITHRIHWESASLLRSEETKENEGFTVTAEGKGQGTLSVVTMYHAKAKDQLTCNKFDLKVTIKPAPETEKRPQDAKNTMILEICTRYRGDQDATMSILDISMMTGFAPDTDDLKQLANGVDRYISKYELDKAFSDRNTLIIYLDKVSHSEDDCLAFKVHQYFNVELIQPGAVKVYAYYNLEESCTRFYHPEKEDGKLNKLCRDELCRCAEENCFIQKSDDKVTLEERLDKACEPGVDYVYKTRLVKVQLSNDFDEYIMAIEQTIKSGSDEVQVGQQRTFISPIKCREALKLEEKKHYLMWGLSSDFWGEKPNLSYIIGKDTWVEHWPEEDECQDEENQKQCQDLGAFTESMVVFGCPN
T1 sequence (P01024 23-667 limits assumed): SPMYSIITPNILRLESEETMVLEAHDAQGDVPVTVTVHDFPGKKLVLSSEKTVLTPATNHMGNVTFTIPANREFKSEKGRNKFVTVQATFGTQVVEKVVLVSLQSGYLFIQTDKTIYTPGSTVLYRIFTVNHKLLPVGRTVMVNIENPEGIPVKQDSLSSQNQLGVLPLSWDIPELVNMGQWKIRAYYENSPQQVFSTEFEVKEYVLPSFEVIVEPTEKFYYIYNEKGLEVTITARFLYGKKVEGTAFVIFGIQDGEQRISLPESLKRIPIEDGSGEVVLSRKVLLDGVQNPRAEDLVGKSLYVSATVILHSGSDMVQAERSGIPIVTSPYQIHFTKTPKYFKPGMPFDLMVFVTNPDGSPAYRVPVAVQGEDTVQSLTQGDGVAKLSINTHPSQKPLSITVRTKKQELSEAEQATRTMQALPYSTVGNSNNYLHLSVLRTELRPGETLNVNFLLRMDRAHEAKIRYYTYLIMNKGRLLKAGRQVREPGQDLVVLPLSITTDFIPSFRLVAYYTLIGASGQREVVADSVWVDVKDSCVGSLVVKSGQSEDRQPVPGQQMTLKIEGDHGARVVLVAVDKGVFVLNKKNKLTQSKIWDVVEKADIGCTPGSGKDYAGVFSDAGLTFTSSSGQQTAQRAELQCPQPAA

Turning to `OC[C@H]1O[C@@H](O)[C@H](O)[C@@H](O)[C@@H]1O` [β-D-glucose], the “final concentration identified as particularly effective” value with complement (added to a complement-containing sample) is given as not below 1.33 M. For the same compound, the “range of final concentrations found to provide protection against spontaneous complement activation” value in the test with complement (complement-containing samples during in vitro storage) lay within 0.5 to 4 M. The “acceptable range of final concentration at which spontaneous C activation will be prevented” value in the test with complement (ingredient of the formulation) is not below 1.3 M. Also, the “prevention of spontaneous activation of C3” value at C3 is reported as “completely prevented”. Moreover, the “prevention of spontaneous activation of C4 (C4d fragment production)” value in the test with C4 is given as “completely prevented”.
